# Laboratory results from article PMC7415810, “A novel nucleolin-binding peptide for Cancer Theranostics” (Theranostics, 2020).
# Tests used:
# Format in all cases: cell-based, human
# [1] = tested on: cancer cells (MCF-7, MDA-MB-231, HT-29, HCT-116); assay: Flow cytometry binding of FITC-labeled peptide; settings: 1 × 10^5 cells, 2 h at 37 °C, serum-free medium
# Method: (§1) Fluorescence-activated cell-sorting (FACS) analysis was used to check the binding of the FITC labeled peptides (FITC-peptide). The stock solution for the FITC-peptides (100 μM) was prepared by dissolving the peptide in PBS. MCF-10A, MCF-7, MDA-MB-231, CCD-18Co, HT-29, and HCT-116 cells were seeded in 6-well plates (10^5 cells/well) containing 3 ml of medium, and the plates were then incubated at 37 °C overnight. […] Thereafter, the medium was removed, and the cells were washed with cold PBS to remove any remaining peptide. Adequate trypsin/EDTA was added to each well, which was followed by a 3 ~ 5 min incubation at 37 °C. Trypsin/EDTA was immediately neutralized by adding medium, and the cell suspension was then transferred into centrifuge tubes. The cells were separated and washed twice with PBS. […] The prepared cells were analyzed on a FACScanto II (BD Biosciences, San Jose, CA, USA) flow cytometer, and the FACS data were analyzed using FlowJo (TreeStar, Ashland, OR, USA).
# (§2) Next, to examine whether the MAP ligand can selectively bind to cancer cells, cancer cells treated with FITC-labeled AGM-330 (AGM-330-FITC) were compared with untreated cells. […] Then, the inherent fluorescence of peptide-treated cells were compared and measured based on changes in the mean fluorescence intensity (MFI) values compared to those of untreated cells (Figure 1D and E).
# [2] = tested on: normal cells (MCF-10A, CCD-18Co); assay: Flow cytometry binding of FITC-labeled peptide; settings: 1 × 10^5 cells, 2 h at 37 °C, serum-free medium
# Method: as §1, §2
# MDA-MB-231 cells = assay: Time-dependent binding/internalization of AGM-330-FITC, confocal microscopy; settings: 5 μmol/l, 37 °C, 1, 3, 6 and 12 h, confocal fluorescence
# Method: We evaluated the specificity of AGM-330 to NCL with cell binding assays against different cell lines using fluorescence microscopy. The experiment was performed using multiple cancer cell lines, MCF-7, MDA-MB-231, HT-29, and HCT-116, and normal cell lines, MCF-10A, and CCD-18Co. The binding specificity was determined by confocal imaging after 1 h of incubation of the cells with 5 μmol/l AGM-330-FITC. The cells were incubated with DAPI to counterstain the nuclei (blue fluorescence). […] To evaluate the ability of AGM-330 to undergo NCL-mediated endocytosis, MDA-MB-231 cells were incubated with AGM-330-FITC at 37 °C for different times (1, 3, 6 and 12 h). […] As mentioned in a previous study, N6L is essentially built on a lysine-rich helicoid template formed by a repeat of 6 tripeptide units. […] Therefore, the difference in the molecular structure between AGM-330 and N6L may be caused by different endocytosis mechanisms. […] However, except for membrane NCL, we could not confirm the protein associated with internalization among the proteins bound to AGM-330 (Figure 2D). Taken together, N6L, which binds to both membrane NCL and nucleophosmin, induce apoptosis after internalization into nucleolus of cancer cells.
# Figure S6. Time-dependent in vitro binding assay of AGM-330-FITC toward cancer cells. MDA-MB-231 cells were incubated with 5 μmol/l AGM-330-FITC for 1, 3, 6 and 12 h at 37 °C. […]
substance,measurement,setting,value
"AGM-330-FITC (RHGAMVYLK; PEG12 after the C-terminal Lys of each RHGAMVYLK arm, joined to a trilysine core; FITC (by FITC-5-maleimide))",binding to cancer cells (MFI relative to untreated cells),[1],significant cancer cell binding
same,binding to normal cells (MFI),[2],significant decrease in binding to normal cells
same,cellular uptake / internalization,MDA-MB-231 cells,not taken up by the cytoplasm or nucleolus
